Laboratory results from US7642354B2, “Polycyclic pyrazines as potassium ion channel modulators” (Icagen, Inc., priority 2004, dated 2010).
Several values for one entry are separate records, joined by “and”; a condition that tells them apart may be missing. Equal values may be shown once.

Target: hSK2 (Homo sapiens, UniProt Q9H2S1)
Assay: Assay for compound activity towards hSK channels (86Rb+ efflux)
Assay type: cell-based
Settings: 86Rb+ efflux stimulated with calcium ionophore; drug 0.01 to 30 μM in EBSS; read-out: hSK2 Inhibitory Activity
Method: 18.1 Assay for Compound Activity Towards hSK Channels Cells expressing small conductance, calcium activated potassium channels, such as SK-like channels were loaded with ^86Rb^+ by culture in media containing ^86RbCl. Following loading, the culture media was removed and the cells were washed in EBSS to remove residual traces of ^86Rb^+. Cells were preincubated with the drug (0.01 to 30 μM in EBSS) and then ^86Rb^+ efflux was stimulated by exposing cells to EBSS solution supplemented with a calcium ionophore, such as ionomycin, in the continued presence of the drug. After a suitable efflux period, the EBSS/ionophore solution was removed from the cells and the ^86Rb^+ content was determined by Cherenkov counting (Wallac Trilux). Cells were then lysed with a SDS solution and the ^86Rb^+ content of the lysate was determined. Percent ^86Rb^+ efflux was calculated according to the following equation: (^86Rb^+ content in EBSS/(^86Rb^+ content in EBSS+^86Rb^+ content of the lysate))×100

Row | IC50 | Structure (SMILES)
1 | 3 to 30 µM | NC(=O)c1cnn(-c2ccccc2)c1Nc1cncc(-c2ccccn2)n1 [1-Phenyl-5-(6-pyridin-2-yl-pyrazin-2-ylamino)-1H-pyrazole-4-carboxylic acid amide]
2 | 3 to 30 µM | CCOC(=O)c1cnn(-c2ccccc2)c1Nc1cncc(-c2ccccn2)n1 [1-Phenyl-5-(6-pyridin-2-yl-pyrazin-2-ylamino)-1H-pyrazole-4-carboxylic acid ethyl ester]
3 | 3 to 30 µM | CC(=O)c1sc(Nc2cncc(-c3ccccn3)n2)nc1C [1-[4-Methyl-2-(6-pyridin-2-yl-pyrazin-2-ylamino)-thiazol-5-yl]ethanone]
4 | < 0.05 µM | O=C1CCCN1c1ccc(Nc2cncc(-c3ccccn3)n2)nc1 [1-[6-(6-Pyridin-2-yl-pyrazin-2-ylamino)-pyridin-3-yl]-pyrrolidin-2-one]
5 | 0.05 to 1 µM | O=C1CCCN1c1ccc(Nc2cncc(-c3nccs3)n2)nc1 [1-[6-(6-Thiazol-2-yl-pyrazin-2-ylamino)-pyridin-3-yl]-pyrrolidin-2-one]
6 | 0.05 to 1 µM | Cc1cnn(-c2cncc(Nc3ccc(N4CCCC4=O)cn3)n2)c1 [1-{6-[6-(4-Methyl-pyrazol-1-yl)-pyrazin-2-ylamino]-pyridin-3-yl}-pyrrolidin-2-one]
7 | 3 to 30 µM | COc1cccc(-c2cncc(-c3cccc(OC)n3)n2)n1 [2,6-Bis-(6-methoxy-pyridin-2-yl)-pyrazine]
8 | 3 to 30 µM | Oc1cccnc1Nc1cncc(-c2ccccn2)n1 [2-(6-Pyridin-2-yl-pyrazin-2-ylamino)-pyridin-3-ol]
9 | 3 to 30 µM | CCOC(=O)c1c[nH]nc1Nc1cncc(-c2ccccn2)n1 [3-(6-Pyridin-2-yl-pyrazin-2-ylamino)-1H-pyrazole-4-carboxylic acid ethyl ester]
10 | 3 to 30 µM | N#Cc1cncnc1Nc1cncc(-c2ccccn2)n1 [4-(6-Pyridin-2-yl-pyrazin-2-ylamino)-pyrimidine-5-carbonitrile]
11 | 3 to 30 µM | CN1CCN(c2ccc(Nc3cncc(-c4ccccn4)n3)nc2)C(=O)C1 [4-Methyl-1-[6-(6-pyridin-2-yl-pyrazin-2-ylamino)-pyridin-3-yl]-piperazin-2-one]
12 | 3 to 30 µM | CCOC(=O)c1sc(Nc2cncc(-c3ccccn3)n2)nc1-c1ccccc1 [4-Phenyl-2-(6-pyridin-2-yl-pyrazin-2-ylamino)-thiazole-5-carboxylic acid ethyl ester]
13 | 3 to 30 µM | NC(=O)c1ncc(-c2ccccn2)nc1Nc1ccccn1 [5-Pyridin-2-yl-3-(pyridin-2-ylamino)-pyrazine-2-carboxylic acid amide]
14 | 3 to 30 µM | NC(=O)c1ccc(Nc2cncc(-c3ccccn3)n2)nc1 [6-(6-Pyridin-2-yl-pyrazin-2-ylamino)-nicotinamide]
15 | 3 to 30 µM | Cn1c(Nc2cncc(-c3ccccn3)n2)nc2ccccc21 [(1-Methyl-1H-benzoimidazol-2-yl)-(6-pyridin-2-yl-pyrazin-2-yl)-amine]
16 | 3 to 30 µM | [O-][n+]1ccccc1Nc1cncc(-c2ccccn2)n1 [(1-Oxy-pyridin-2-yl)-(6-pyridin-2-yl-pyrazin-2-yl)-amine]
17 | 3 to 30 µM | Cc1cc(Nc2cncc(-c3ccccn3)n2)c2ccccc2n1 [(2-Methyl-quinolin-4-yl)-(6-pyridin-2-yl-pyrazin-2-yl)-amine]
18 | 3 to 30 µM | Cc1noc(Nc2cncc(-c3ccccn3)n2)c1C [(3,4-Dimethyl-isoxazol-5-yl)-(6-pyridin-2-yl-pyrazin-2-yl)-amine]
19 | 3 to 30 µM | c1ccc(COc2cccnc2Nc2cncc(-c3ccccn3)n2)cc1 [(3-Benzyloxy-pyridin-2-yl)-(6-pyridin-2-yl-pyrazin-2-yl)-amine]
20 | 1 to 3 µM | Brc1ncc(-c2ccccn2)nc1Nc1ccccn1 [(3-Bromo-6-pyridin-2-yl-pyrazin-2-yl)-pyridin-2-yl-amine]
21 | 3 to 30 µM | FC(F)(F)c1cnc(Nc2cncc(-c3ccccn3)n2)c(Cl)c1 [(3-Chloro-5-trifluoromethyl-pyridin-2-yl)-(6-pyridin-2-yl-pyrazin-2-yl)-amine]
22 | 3 to 30 µM | CCCCCOc1cccnc1Nc1cncc(-c2ccccn2)n1 [(3-Pentyloxy-pyridin-2-yl)-(6-pyridin-2-yl-pyrazin-2-yl)-amine]
23 | 3 to 30 µM | COc1cc(OC)nc(Nc2cncc(-c3ccccn3)n2)n1 [(4,6-Dimethoxy-pyrimidin-2-yl)-(6-pyridin-2-yl-pyrazin-2-yl)-amine]
24 | 0.05 to 1 µM | CC1CCN(c2ccc(Nc3cncc(-c4ccccn4)n3)nc2)CC1 [(4-Methyl-3,4,5,6-tetrahydro-2H-[1,3′]bipyridinyl-6′-yl)-(6-pyridin-2-yl-pyrazin-2-yl)-amine]
25 | 3 to 30 µM | Cc1ccnc(Nc2cncc(-c3ccccn3)n2)c1[N+](=O)[O-] [(4-Methyl-3-nitro-pyridin-2-yl)-(6-pyridin-2-yl-pyrazin-2-yl)-amine]
26 | < 0.05 µM | Cc1ccnc(Nc2cncc(-c3ccccn3)n2)c1 [(4-Methyl-pyridin-2-yl)-(6-pyridin-2-yl-pyrazin-2-yl)-amine]

Row | IC50 | Structure (SMILES)
27 | 0.05 to 1 µM | Cc1ccnc(Nc2cncc(-c3cc(N4CCCC4)ccn3)n2)c1 [(4-Methyl-pyridin-2-yl)-[6-(4-pyrrolidin-1-yl-pyridin-2-yl)-pyrazin-2-yl]-amine]
28 | 3 to 30 µM | c1ccc(-c2csc(Nc3cncc(-c4ccccn4)n3)n2)cc1 [(4-Phenyl-thiazol-2-yl)-(6-pyridin-2-yl-pyrazin-2-yl)-amine]
29 | 3 to 30 µM | Brc1ccc(Nc2cnc(Br)c(-c3ccccn3)n2)nc1 [(5-Bromo-pyridin-2-yl)-(5-bromo-6-pyridin-2-yl-pyrazin-2-yl)-amine]
30 | 0.05 to 1 µM | Brc1ccc(Nc2cncc(-c3ccccn3)n2)nc1 [(5-Bromo-pyridin-2-yl)-(6-pyridin-2-yl-pyrazin-2-yl)-amine]
31 | 0.05 to 1 µM | Clc1ccc(Nc2cncc(-c3ccccn3)n2)nc1 [(5-Chloro-pyridin-2-yl)-(6-pyridin-2-yl-pyrazin-2-yl)-amine]
32 | 1 to 3 µM | Clc1ccc(Nc2cncc(-c3cc(N4CCCC4)ccn3)n2)nc1 [(5-Chloro-pyridin-2-yl)-[6-(4-pyrrolidin-1-yl-pyridin-2-yl)-pyrazin-2-yl]-amine]
33 | 3 to 30 µM | COc1cccc(-c2cncc(Nc3ccc(Cl)cn3)n2)n1 [(5-Chloro-pyridin-2-yl)-[6-(6-methoxy-pyridin-2-yl)-pyrazin-2-yl]-amine]
34 | 0.05 to 1 µM and 1 to 3 µM | Fc1ccc(Nc2cncc(-c3ccccn3)n2)nc1 [(5-Fluoro-pyridin-2-yl)-(6-pyridin-2-yl-pyrazin-2-yl)-amine]
35 | 0.05 to 1 µM | Cc1ccnc(-c2cncc(Nc3ccc(F)cn3)n2)c1 [(5-Fluoro-pyridin-2-yl)-[6-(4-methyl-pyridin-2-yl)-pyrazin-2-yl]-amine]
36 | 3 to 30 µM | Fc1ccc(Nc2cncc(-c3cc(N4CCCC4)ccn3)n2)nc1 [(5-Fluoro-pyridin-2-yl)-[6-(4-pyrrolidin-1-yl-pyridin-2-yl)-pyrazin-2-yl]-amine]
37 | 3 to 30 µM | Cc1ccc(-c2cncc(Nc3ccc(F)cn3)n2)nc1 [(5-Fluoro-pyridin-2-yl)-[6-(5-methyl-pyridin-2-yl)-pyrazin-2-yl]-amine]
38 | 3 to 30 µM | c1ccc(-c2cncc(Nc3cc(-c4ccco4)n[nH]3)n2)nc1 [(5-Furan-2-yl-2H-pyrazol-3-yl)-(6-pyridin-2-yl-pyrazin-2-yl)-amine]
39 | 0.05 to 1 µM | c1ccc(-c2cncc(Nc3ccc(-c4ccco4)cn3)n2)nc1 [(5-Furan-2-yl-pyridin-2-yl)-(6-pyridin-2-yl-pyrazin-2-yl)-amine]
40 | 3 to 30 µM | Cc1cnn(-c2cncc(Nc3ccc(I)cn3)n2)c1 [(5-Iodo-pyridin-2-yl)-[6-(4-methyl-pyrazol-1-yl)-pyrazin-2-yl]-amine]
41 | 0.05 to 1 µM | Cc1cc(Nc2cncc(-c3ccccn3)n2)[nH]n1 [(5-Methyl-2H-pyrazol-3-yl)-(6-pyridin-2-yl-pyrazin-2-yl)-amine]
42 | 3 to 30 µM | Cc1nnc(Nc2cncc(-c3ccccn3)n2)s1 [(5-Methyl-[1,3,4]thiadiazol-2-yl)-(6-pyridin-2-yl-pyrazin-2-yl)-amine]
43 | < 0.05 µM | c1ccc(-c2cncc(Nc3ccc(N4CCOCC4)cn3)n2)nc1 [(5-Morpholin-4-yl-pyridin-2-yl)-(6-pyridin-2-yl-pyrazin-2-yl)-amine]
44 | 3 to 30 µM | O=[N+]([O-])c1ccc(Nc2cncc(-c3ccccn3)n2)nc1 [(5-Nitro-pyridin-2-yl)-(6-pyridin-2-yl-pyrazin-2-yl)-amine]
45 | 0.05 to 1 µM | c1ccc(-c2ccc(Nc3cncc(-c4ccccn4)n3)nc2)cc1 [(5-Phenyl-pyridin-2-yl)-(6-pyridin-2-yl-pyrazin-2-yl)-amine]
46 | 3 to 30 µM | c1ccc(-c2ccc(Nc3cncc(-c4nccs4)n3)nc2)cc1 [(5-Phenyl-pyridin-2-yl)-(6-thiazol-2-yl-pyrazin-2-yl)-amine]
47 | 3 to 30 µM | c1ccc(-c2ccc(Nc3cncc(-c4cc(N5CCCC5)ccn4)n3)nc2)cc1 [(5-Phenyl-pyridin-2-yl)-[6-(4-pyrrolidin-1-yl-pyridin-2-yl)-pyrazin-2-yl]-amine]
48 | 3 to 30 µM | CC(C)(C)c1nnc(Nc2cncc(-c3ccccn3)n2)s1 [(5-tert-Butyl-[1,3,4]thiadiazol-2-yl)-(6-pyridin-2-yl-pyrazin-2-yl)-amine]
49 | 3 to 30 µM | c1ccc(Nc2cncc(-c3cc4ccccc4s3)n2)nc1 [(6-Benzo[b]thiophen-2-yl-pyrazin-2-yl)-pyridin-2-yl-amine]
50 | 3 to 30 µM | c1ccc(Nc2cncc(-c3cc4ccccc4o3)n2)nc1 [(6-Benzofuran-2-yl-pyrazin-2-yl)-pyridin-2-yl-amine]
51 | 1 to 3 µM | Fc1cccc(Nc2cncc(-c3ccccn3)n2)n1 [(6-Fluoro-pyridin-2-yl)-(6-pyridin-2-yl-pyrazin-2-yl)-amine]
